Experimental findings from US20040167112A1, “Use of estrogen receptor alpha modulators for the treatment of multiple sclerosis” (Wyeth, priority 2003, published 2004) are described below.

For experiment [1], the system named is experimental autoimmune encephalomyelitis (EAE). Description: EAE induced by adoptive transfer of PLP-primed effector cells: clinical disease. The experiment is classed as in vivo, SJL mice. The following applies: for onset, incidence and severity of disease (EAE): ovariectomized female SJL recipient mice, compounds daily s.c. or p.o. from 5-7 days before transfer, severity scale 0-6.

The test system of experiment [2] is experimental autoimmune encephalomyelitis (EAE), brain and spinal cord. Description: Histological analysis of brains and spinal cords of EAE mice at peak disease. The experiment is classed as in vivo, SJL mice. The procedure: Histological Analysis. At peak disease (14 days PT), mice were euthanized with CO2. […] Brains were cut into three segments (roughly, anterior cerebrum, midbrain and cerebellum) and embedded as a single block. […] A standard H&E (hematoxylin and eosin) glass slide was prepared from each tissue block (brain and spinal cord) from each mouse submitted with two resulting H&E slides per mouse evaluated. Slides were evaluated and lesions seen were graded subjectively for presence (P=present) and/or severity. […] The location of findings, relative to the organ, was denoted as perivascular, periventricular, ependymal or meningeal, and also as focal (in small areas or not throughout the section), or diffuse (throughout the section examined). Focal was defined as very localized and not affecting every structure. Findings not defined as focal were diffuse or affecting every structure (e.g. all vessels). […] Typical murine models of EAE have scattered foci of slight to moderate-sized aggregates of leukocytes and rarely have diffuse infiltrates in the affected tissues.

Experiment [3] deals with PLP-primed effector cells (splenocytes). In words: Cytokine production by PLP-primed effector cells upon antigen stimulation in vitro. Format: cell-based, SJL mice. Particulars: compound 1 μM, 5 μg/ml PLP, 3 days. Here is the method:
To examine in vitro the effect of compounds on cytokine production by PLP-primed effector cells, SJL mice were immunized with PLP emulsified in CFA. After 10 days, spleens were collected and single cell suspensions were made. After lysis of red blood cells, splenocytes were stimulated with 5 μg/ml PLP in the presence of compound for 3 days at 37° C., 5% CO2. Control samples were not stimulated and cultured in medium only (“medium”). Compounds were added at a final concentration of 1 μM. After the 3-day incubation, supernatants were collected and stored at −20° C. Cytokines (TNF-α, IFN-γ, IL-5, IL-4, IL-2) were measured in the supernatants using a Cytometric Bead Array kit.

Experiment [4] relates to PLP-primed effector T cells (splenocytes). In words: Proliferation of effector T cells upon antigen (PLP) stimulation, CFSE flow cytometry. Format: cell-based, SJL mice. The following applies: compound 1 μM, 3 days. The source says:
Effect of compounds on proliferation of effector T cells upon antigen stimulation To examine the effect of proliferation of effector T cells in vitro in response to PLP stimulation, T-cell proliferation was examined by flow cytometry using the following assay. SJL mice were immunized with PLP emulsified in CFA. After 10 days, spleens were collected and single cell suspensions were made. After lysis of red blood cells, splenocytes were labeled with carboxy fluorescein succinimidyl ester (CFSE). CFSE-labeled cells were then incubated with PLP for 3 days at 37° C., 5% CO2. Compounds were added at a final concentration of 1 μM. To determine the percentage of CD4^+ cells that divided, the CFSE-labeled cells were stained with antibodies specific for the CD4 marker prior to flow cytometric analysis.

[5] abbreviates: Table III (ER-selective agonists), 14 days PT.
The mark [6] stands for this setting: Table III (ER-selective agonists), 14 days PT, grade 0-5.
The mark [7] stands for this setting: Table II, 14 days PT, grade 0-5.
[8] abbreviates: Table II, 14 days PT, grade 0 within normal limits to 5 severe.

Molecules are shown by their SMILES. Entries after “also recorded” stand apart in the source; their conditions may differ.

In the case of `C[C@]12CC[C@@H]3c4ccc(O)cc4C[C@@H](CCCCCCCCC[S+]([O-])CCCC(F)(F)C(F)(F)F)[C@H]3[C@@H]1CC[C@@H]2O` (some centres unmarked) [ICI 182,780], the “effect of ER antagonist on estrogen-mediated suppression of disease” value in experiment [1] (mice treated with both E2 and ICI 182,780) is “abolished the effect of E2 on disease”.
`CCCc1c(-c2ccc(O)cc2)nn(-c2ccc(O)cc2)c1-c1ccc(O)cc1` [PPT, propylpyrazole triol]: in experiment [2] (setting [5]), the “Spinal Cord Demyelination: number with finding/total number evaluated” value is on record as 0/4 and the “Spinal Cord Meningeal/Perivascular Leukocyte Infiltrates: number with finding/total number evaluated” value is recorded as 0/4. For the same compound, in experiment [2] (setting [6]), the “Brain Meningeal/Perivascular Leukocyte Infiltrates: average severity grade of lesions seen” value stood at 1.
`O=C(c1ccc(OCCN2CCCCC2)cc1)c1c(-c2ccc(O)cc2)sc2cc(O)ccc12` [Raloxifene, raloxifene]: the “onset, incidence and severity of disease (EAE)” value (“onset, incidence and severity” below) in experiment [1] is “delay in onset as well as decreased incidence and severity of disease; also recorded: delayed onset of disease, as well as decreased incidence and severity”.
For `C[C@]12CC[C@@H]3c4ccc(O)cc4CC[C@H]3[C@@H]1CC[C@@H]2O` [Compound E2, 17β-estradiol], in experiment [2] (Table II, 14 days PT), the “Brain Meningeal/Perivascular Leukocyte Infiltrates: number of brains with finding/total number evaluated” value is on record as 4/4, the “Spinal Cord Demyelination: number with finding/total number evaluated” value was “¾” and the “Spinal Cord Meningeal/Perivascular Leukocyte Infiltrates: number with finding/total number evaluated” value is listed as “¾”. Moreover, in experiment [2] (setting [7]), the “Spinal Cord Demyelination: average severity grade of lesions seen” value (shortened to “Spinal Cord Demyelination … of lesions seen”) stood at 1.3 and the “Spinal Cord Meningeal/Perivascular Leukocyte Infiltrates: average severity grade of lesions seen” value was 1.7. Also, the “Brain Meningeal/Perivascular Leukocyte Infiltrates: average severity grade of lesions seen” value in experiment [2] (setting [8]) is reported as 2.5. In experiment [2] (setting [5]), the “Brain Meningeal/Perivascular Leukocyte Infiltrates: number of brains with finding/total number evaluated” value was 3/4, the “Distribution of Brain Lesions” value is “Meningeal”, the “Spinal Cord Demyelination: number with finding/total number evaluated” value was 1/4 and the “Spinal Cord Meningeal/Perivascular Leukocyte Infiltrates: number with finding/total number evaluated” value is given as 2/4. Besides, in experiment [2] (setting [6]), the “Brain Meningeal/Perivascular Leukocyte Infiltrates: average severity grade of lesions seen” value is 1.7, the “Spinal Cord Demyelination … of lesions seen” value stood at 1 and the “Spinal Cord Meningeal/Perivascular Leukocyte Infiltrates: average severity grade of lesions seen” value was 1. The “onset, incidence and severity” value in experiment [1] was “delay in onset as well as decreased incidence and severity of disease”.
For `C=Cc1cc(O)cc2nc(-c3ccc(O)c(F)c3)oc12` [ERβ-041], in experiment [2] (setting [5]), the “Brain Meningeal/Perivascular Leukocyte Infiltrates: number of brains with finding/total number evaluated” value is reported as 4/4, the “Spinal Cord Demyelination: number with finding/total number evaluated” value is recorded as 2/4 and the “Spinal Cord Meningeal/Perivascular Leukocyte Infiltrates: number with finding/total number evaluated” value is 2/4. In addition, in experiment [2] (setting [6]), the “Brain Meningeal/Perivascular Leukocyte Infiltrates: average severity grade of lesions seen” value was found to be 2.3, the “Spinal Cord Demyelination … of lesions seen” value is reported as 1.5 and the “Spinal Cord Meningeal/Perivascular Leukocyte Infiltrates: average severity grade of lesions seen” value amounted to 1.5.
As for `Cc1c(-c2ccc(O)cc2)n(Cc2ccc(OCCN3CCCCC3)cc2)c2ccc(O)cc12.Cl.O` [Compound A], the “demyelination in spinal cords” value in experiment [2] (SERM experiment) is recorded as “no demyelination was detected”. In experiment [2] (Table II, 14 days PT), the “Brain Meningeal/Perivascular Leukocyte Infiltrates: number of brains with finding/total number evaluated” value is 3/5, the “Spinal Cord Demyelination: number with finding/total number evaluated” value is recorded as 0/5 and the “Spinal Cord Meningeal/Perivascular Leukocyte Infiltrates: number with finding/total number evaluated” value was 1/5. Besides, the “Spinal Cord Meningeal/Perivascular Leukocyte Infiltrates: average severity grade of lesions seen” value in experiment [2] (setting [7]) is 1. In experiment [2] (setting [8]), the “Brain Meningeal/Perivascular Leukocyte Infiltrates: average severity grade of lesions seen” value is 2.7. In addition, the “amount of inflammatory cells infiltrating the spinal cords and brains” value in experiment [2] (compared to mice from other treatment groups (text, SERM experiment)) is listed as “reduction”. In addition, the “pathology and leukocyte infiltration in the brains and spinal cords” value in experiment [2] (conclusions) was “reduced pathology and leukocyte infiltration”. Further, the “onset, incidence and severity” value in experiment [1] (hydrochloride monohydrate) is “delay in onset as well as decreased incidence and severity of disease; also recorded: delayed onset of disease, as well as decreased incidence and severity”. Further, in experiment [3], the “IFN-γ production by effector T cells upon antigen stimulation” value is listed as “suppressed”, the “IL-4 production by effector T cells upon antigen stimulation” value was “concomitant increase”, the “TNF-α production by effector T cells upon antigen stimulation” value was “inhibited” and the “cytokine production by effector cells upon antigen stimulation” value is “decreased cytokine production”. Besides, in experiment [4], the “proliferation of CD4+ cells upon antigen stimulation” value is given as “suppressed”, the “proliferation of CD4− cells upon antigen stimulation” value is “suppressed” and the “proliferation of antigen-specific T cells” value is “decreased proliferation”.
